Assay results taken from ChEMBL document CHEMBL3576778, “Structure-Activity Relationship Studies of a Series of Semisynthetic Lipopeptides Leading to the Discovery of Surotomycin, a Novel Cyclic Lipopeptide Being Developed for the Treatment of Clostridium difficile-Associated Diarrhea” (J Med Chem, 2015).
In brackets after ≈: the same amount, converted by molar mass.

Columns and labels:
Type in all cases: functional
[1] = tested on: Staphylococcus aureus; experiment: Antimicrobial activity against daptomycin-susceptible Staphylococcus aureus ATCC 29213 incubated anaerobically at 37 degC for 48 hrs by agar dilution method; details: ATCC 29213, 48 h
[2] = tested on: Enterococcus faecium; experiment: Antimicrobial activity against daptomycin-resistant Enterococcus faecium ATCC 6569 incubated anaerobically at 37 degC for 48 hrs by agar dilution method; details: ATCC 6569, 48 h
[3] = tested on: Clostridioides difficile; experiment: Antimicrobial activity against daptomycin-resistant Clostridium difficile NAP1 incubated anaerobically at 37 degC for 48 hrs by agar dilution method; details: NAP1, 48 h
[4] = tested on: Enterococcus faecalis; experiment: Antimicrobial activity against daptomycin-resistant Enterococcus faecalis ATCC 49452 incubated anaerobically at 37 degC for 48 hrs by agar dilution method; details: ATCC 49452, 48 h

Row | SMILES | MIC [1] [µg/mL] | MIC [2] [µg/mL] | MIC [3] [µg/mL] | MIC [4] [µg/mL]
1 | CCCCCOc1ccc(-c2ccc(C(=O)N[C@@H](Cc3c[nH]c4ccccc34)C(=O)N[C@@H](CC(N)=O)C(=O)N[C@@H](CC(=O)O)C(=O)N[C@@H]3C(=O)NCC(=O)N[C@@H](CCCN)C(=O)N[C@H](CC(=O)O)C(=O)N[C@H](C)C(=O)N[C@@H](CC(=O)O)C(=O)NCC(=O)N[C@H](CO)C(=O)N[C@@H]([C@@H](C)CC(=O)O)C(=O)N[C@@H](CC(=O)c4ccccc4N)C(=O)O[C@@H]3C)cc2)cc1 | 0.25 (≈ 0.144 µM) | 2 (≈ 1.15 µM) | 2 (≈ 1.15 µM) | 4 (≈ 2.31 µM)
2 | CCCCCCCCCCCCCCC(=O)N[C@@H](Cc1c[nH]c2ccccc12)C(=O)N[C@@H](CC(N)=O)C(=O)N[C@@H](CC(=O)O)C(=O)N[C@@H]1C(=O)NCC(=O)N[C@@H](CCCN)C(=O)NC(CC(=O)O)C(=O)N[C@H](C)C(=O)N[C@@H](CC(=O)O)C(=O)NCC(=O)N[C@H](CO)C(=O)N[C@@H]([C@@H](C)CC(=O)O)C(=O)N[C@@H](CC(=O)c2ccccc2N)C(=O)O[C@@H]1C (single isomer, unassigned) | 1 (≈ 0.591 µM) | 4 (≈ 2.37 µM) | 16 (≈ 9.46 µM) | 4 (≈ 2.37 µM)
3 | C[C@H]1NC(=O)C(CC(=O)O)NC(=O)[C@H](CCCN)NC(=O)CNC(=O)[C@@H](NC(=O)[C@H](CC(=O)O)NC(=O)[C@H](CC(N)=O)NC(=O)[C@H](Cc2c[nH]c3ccccc23)NC(=O)CCCCCCc2ccccc2)[C@@H](C)OC(=O)[C@H](CC(=O)c2ccccc2N)NC(=O)[C@H]([C@@H](C)CC(=O)O)NC(=O)[C@@H](CO)NC(=O)CNC(=O)[C@H](CC(=O)O)NC1=O (single isomer, unassigned) | 16 (≈ 9.67 µM) | > 32 | 8 (≈ 4.83 µM) | > 32
4 | CCCCCOc1ccc(/C=C/C(=O)N[C@@H](Cc2c[nH]c3ccccc23)C(=O)N[C@@H](CC(N)=O)C(=O)N[C@@H](CC(=O)O)C(=O)N[C@@H]2C(=O)NCC(=O)N[C@@H](CCCN)C(=O)NC(CC(=O)O)C(=O)N[C@H](C)C(=O)N[C@@H](CC(=O)O)C(=O)NCC(=O)N[C@H](CO)C(=O)N[C@@H]([C@@H](C)CC(=O)O)C(=O)N[C@@H](CC(=O)c3ccccc3N)C(=O)O[C@@H]2C)cc1 (single isomer, unassigned) | 4 (≈ 2.38 µM) | > 32 | 4 (≈ 2.38 µM) | > 32
5 | CCCOc1ccc(-c2ccc(C(=O)N[C@@H](Cc3c[nH]c4ccccc34)C(=O)N[C@@H](CC(N)=O)C(=O)N[C@@H](CC(=O)O)C(=O)N[C@@H]3C(=O)NCC(=O)N[C@@H](CCCN)C(=O)N[C@H](CC(=O)O)C(=O)N[C@H](C)C(=O)N[C@@H](CC(=O)O)C(=O)NCC(=O)N[C@H](CO)C(=O)N[C@@H]([C@@H](C)CC(=O)O)C(=O)N[C@@H](CC(=O)c4ccccc4N)C(=O)O[C@@H]3C)cc2)cc1 | 0.5 (≈ 0.293 µM) | 32 (≈ 18.8 µM) | 4 (≈ 2.35 µM) | > 32
6 | CCCCCCOc1ccc(-c2ccc(C(=O)N[C@@H](Cc3c[nH]c4ccccc34)C(=O)N[C@@H](CC(N)=O)C(=O)N[C@@H](CC(=O)O)C(=O)N[C@@H]3C(=O)NCC(=O)N[C@@H](CCCN)C(=O)N[C@H](CC(=O)O)C(=O)N[C@H](C)C(=O)N[C@@H](CC(=O)O)C(=O)NCC(=O)N[C@H](CO)C(=O)N[C@@H]([C@@H](C)CC(=O)O)C(=O)N[C@@H](CC(=O)c4ccccc4N)C(=O)O[C@@H]3C)cc2)cc1 | 0.5 (≈ 0.286 µM) | 1 (≈ 0.572 µM) | 2 (≈ 1.14 µM) | 2 (≈ 1.14 µM)
7 | C[C@H]1NC(=O)C(CC(=O)O)NC(=O)[C@H](CCCN)NC(=O)CNC(=O)[C@@H](NC(=O)[C@H](CC(=O)O)NC(=O)[C@H](CC(N)=O)NC(=O)[C@H](Cc2c[nH]c3ccccc23)NC(=O)CCCCCc2ccccc2)[C@@H](C)OC(=O)[C@H](CC(=O)c2ccccc2N)NC(=O)[C@H]([C@@H](C)CC(=O)O)NC(=O)[C@@H](CO)NC(=O)CNC(=O)[C@H](CC(=O)O)NC1=O (single isomer, unassigned) | 16 (≈ 9.75 µM) | > 32 | 16 (≈ 9.75 µM) | > 32
8 | C[C@H]1NC(=O)C(CC(=O)O)NC(=O)[C@H](CCCN)NC(=O)CNC(=O)[C@@H](NC(=O)[C@H](CC(=O)O)NC(=O)[C@H](CC(N)=O)NC(=O)[C@H](Cc2c[nH]c3ccccc23)NC(=O)CCCCC2CCCCC2)[C@@H](C)OC(=O)[C@H](CC(=O)c2ccccc2N)NC(=O)[C@H]([C@@H](C)CC(=O)O)NC(=O)[C@@H](CO)NC(=O)CNC(=O)[C@H](CC(=O)O)NC1=O (single isomer, unassigned) | 1 (≈ 0.612 µM) | 32 (≈ 19.6 µM) | 4 (≈ 2.45 µM) | > 32
9 | CCCCCCCOc1ccc(-c2ccc(C(=O)N[C@@H](Cc3c[nH]c4ccccc34)C(=O)N[C@@H](CC(N)=O)C(=O)N[C@@H](CC(=O)O)C(=O)N[C@@H]3C(=O)NCC(=O)N[C@@H](CCCN)C(=O)N[C@H](CC(=O)O)C(=O)N[C@H](C)C(=O)N[C@@H](CC(=O)O)C(=O)NCC(=O)N[C@H](CO)C(=O)N[C@@H]([C@@H](C)CC(=O)O)C(=O)N[C@@H](CC(=O)c4ccccc4N)C(=O)O[C@@H]3C)cc2)cc1 | 0.25 (≈ 0.142 µM) | 1 (≈ 0.568 µM) | 2 (≈ 1.14 µM) | 4 (≈ 2.27 µM)
10 | CCCCCCCCCCCCCC(=O)N[C@@H](Cc1c[nH]c2ccccc12)C(=O)N[C@@H](CC(N)=O)C(=O)N[C@@H](CC(=O)O)C(=O)N[C@@H]1C(=O)NCC(=O)N[C@@H](CCCN)C(=O)NC(CC(=O)O)C(=O)N[C@H](C)C(=O)N[C@@H](CC(=O)O)C(=O)NCC(=O)N[C@H](CO)C(=O)N[C@@H]([C@@H](C)CC(=O)O)C(=O)N[C@@H](CC(=O)c2ccccc2N)C(=O)O[C@@H]1C (single isomer, unassigned) | 1 (≈ 0.596 µM) | 4 (≈ 2.39 µM) | 16 (≈ 9.54 µM) | 4 (≈ 2.39 µM)
11 | CC(C)CCCCCCCCCC(=O)N[C@@H](Cc1c[nH]c2ccccc12)C(=O)N[C@@H](CC(N)=O)C(=O)N[C@@H](CC(=O)O)C(=O)N[C@@H]1C(=O)NCC(=O)N[C@@H](CCCN)C(=O)NC(CC(=O)O)C(=O)N[C@H](C)C(=O)N[C@@H](CC(=O)O)C(=O)NCC(=O)N[C@H](CO)C(=O)N[C@@H]([C@@H](C)CC(=O)O)C(=O)N[C@@H](CC(=O)c2ccccc2N)C(=O)O[C@@H]1C (single isomer, unassigned) | 0.25 (≈ 0.15 µM) | 4 (≈ 2.41 µM) | 1 (≈ 0.601 µM) | > 32
12 | CCCCCCc1ccc(C(=O)N[C@@H](Cc2c[nH]c3ccccc23)C(=O)N[C@@H](CC(N)=O)C(=O)N[C@@H](CC(=O)O)C(=O)N[C@@H]2C(=O)NCC(=O)N[C@@H](CCCN)C(=O)N[C@H](CC(=O)O)C(=O)N[C@H](C)C(=O)N[C@@H](CC(=O)O)C(=O)NCC(=O)N[C@H](CO)C(=O)N[C@@H]([C@@H](C)CC(=O)O)C(=O)N[C@@H](CC(=O)c3ccccc3N)C(=O)O[C@@H]2C)cc1 | 1 (≈ 0.604 µM) | 32 (≈ 19.3 µM) | 4 (≈ 2.42 µM) | > 32
13 | CCCCCCCCOc1ccc(-c2ccc(C(=O)N[C@@H](Cc3c[nH]c4ccccc34)C(=O)N[C@@H](CC(N)=O)C(=O)N[C@@H](CC(=O)O)C(=O)N[C@@H]3C(=O)NCC(=O)N[C@@H](CCCN)C(=O)N[C@H](CC(=O)O)C(=O)N[C@H](C)C(=O)N[C@@H](CC(=O)O)C(=O)NCC(=O)N[C@H](CO)C(=O)N[C@@H]([C@@H](C)CC(=O)O)C(=O)N[C@@H](CC(=O)c4ccccc4N)C(=O)O[C@@H]3C)cc2)cc1 | 0.125 (≈ 0.0704 µM) | 4 (≈ 2.25 µM) | 1 (≈ 0.563 µM) | 16 (≈ 9.01 µM)
14 | C[C@H]1NC(=O)[C@@H](CC(=O)O)NC(=O)[C@H](CCCN)NC(=O)CNC(=O)[C@@H](NC(=O)[C@H](CC(=O)O)NC(=O)[C@H](CC(N)=O)NC(=O)[C@H](Cc2c[nH]c3ccccc23)NC(=O)C2CCCCCCCCCCC2)[C@@H](C)OC(=O)[C@H](CC(=O)c2ccccc2N)NC(=O)[C@H]([C@@H](C)CC(=O)O)NC(=O)[C@@H](CO)NC(=O)CNC(=O)[C@H](CC(=O)O)NC1=O | 1 (≈ 0.602 µM) | 32 (≈ 19.3 µM) | 4 (≈ 2.41 µM) | > 32
15 | CCCCCCCCCCCCC(=O)N[C@@H](Cc1c[nH]c2ccccc12)C(=O)N[C@@H](CC(N)=O)C(=O)N[C@@H](CC(=O)O)C(=O)N[C@@H]1C(=O)NCC(=O)N[C@@H](CCCN)C(=O)NC(CC(=O)O)C(=O)N[C@H](C)C(=O)N[C@@H](CC(=O)O)C(=O)NCC(=O)N[C@H](CO)C(=O)N[C@@H]([C@@H](C)CC(=O)O)C(=O)N[C@@H](CC(=O)c2ccccc2N)C(=O)O[C@@H]1C (single isomer, unassigned) | 0.5 (≈ 0.301 µM) | 8 (≈ 4.81 µM) | 8 (≈ 4.81 µM) | 8 (≈ 4.81 µM)
16 | CCCCCCOc1ccc(-c2csc(C(=O)N[C@@H](Cc3c[nH]c4ccccc34)C(=O)N[C@@H](CC(N)=O)C(=O)N[C@@H](CC(=O)O)C(=O)N[C@@H]3C(=O)NCC(=O)N[C@@H](CCCN)C(=O)NC(CC(=O)O)C(=O)N[C@H](C)C(=O)N[C@@H](CC(=O)O)C(=O)NCC(=O)N[C@H](CO)C(=O)N[C@@H]([C@@H](C)CC(=O)O)C(=O)N[C@@H](CC(=O)c4ccccc4N)C(=O)O[C@@H]3C)c2)cc1 (single isomer, unassigned) | 0.5 (≈ 0.285 µM) | 2 (≈ 1.14 µM) | 4 (≈ 2.28 µM) | 8 (≈ 4.56 µM)
17 | CCCCCCSc1ccc(-c2csc(C(=O)N[C@@H](Cc3c[nH]c4ccccc34)C(=O)N[C@@H](CC(N)=O)C(=O)N[C@@H](CC(=O)O)C(=O)N[C@@H]3C(=O)NCC(=O)N[C@@H](CCCN)C(=O)N[C@H](CC(=O)O)C(=O)N[C@H](C)C(=O)N[C@@H](CC(=O)O)C(=O)NCC(=O)N[C@H](CO)C(=O)N[C@@H]([C@@H](C)CC(=O)O)C(=O)N[C@@H](CC(=O)c4ccccc4N)C(=O)O[C@@H]3C)c2)cc1 | 8 (≈ 4.52 µM) | 16 (≈ 9.05 µM) | 8 (≈ 4.52 µM) | > 32
18 | CCCCCCCCCCC(=O)N[C@@H](Cc1c[nH]c2ccccc12)C(=O)N[C@@H](CC(N)=O)C(=O)N[C@@H](CC(=O)O)C(=O)N[C@@H]1C(=O)NCC(=O)N[C@@H](CCCN)C(=O)NC(CC(=O)O)C(=O)N[C@H](C)C(=O)N[C@@H](CC(=O)O)C(=O)NCC(=O)N[C@H](CO)C(=O)N[C@@H]([C@@H](C)CC(=O)O)C(=O)N[C@@H](CC(=O)c2ccccc2N)C(=O)O[C@@H]1C (single isomer, unassigned) | 2 (≈ 1.22 µM) | > 32 | 4 (≈ 2.45 µM) | 32 (≈ 19.6 µM)
